In patent US8569302B2, “Inhibitors of flaviviridae viruses” (Gilead Sciences, Inc., priority 2009, dated 2013):

Test system: human hepatoma Huh-7 cell line harboring a HCV replicon
Assay: HCV replicon assay (inhibition of viral replication, luciferase readout)
Assay type: cell-based
Conditions: Hepatitis C virus, 72 h, Huh-7 HCV replicon cells, 3 days incubation
Procedure: The anti-HCV activity of the compounds of this invention was tested in a human hepatoma Huh-7 cell line harboring a HCV replicon. The assay comprised the following steps:
Step 1: Compound Preparation and Serial Dilution.
Serial dilution was performed in 100% DMSO in a 384-well plate. A solution containing a compound at 225-fold concentration of the starting final serial dilution concentration was prepared in 100% DMSO and 15 μL added to the pre-specified wells in column 3 or 13 of a polypropylene 384-well plate. The rest of the 384-well plate was filled with 10 μL 100% DMSO except for columns 23 and 24, where 10 μL of 500 μM a HCV protease inhibitor (ITMN-191) in 100% DMSO was added. The HCV protease inhibitor was used a control of 100% inhibition of HCV replication. The plate was then placed on a Biomek FX Workstation to start the serial dilution. The serial dilution was performed for ten cycles of 3-fold dilution from column 3 to 12 or from column 13 to 22.
Step 2: Cell Culture Plate Preparation and Compound Addition
To each well of a black polypropylene 384-well plate, 90 μL of cell media containing 1600 suspended Huh-7 HCV replicon cells was added with a Biotek uFlow Workstation. A volume of 0.4 μL of the compound solution was transferred from the serial dilution plate to the cell culture plate on a Biomek FX Workstation. The DMSO concentration in the final assay condition was 0.44%. The plates were incubated for 3 days at 37° C. with 5% CO2 and 85% humidity.
Step 3: Detection of Cytotoxicity and Inhibition of Viral Replication
a) Assessment of cytotoxicity: The media in the 384-well cell culture plate was aspirated with a Biotek EL405 plate-washer. A volume of 50 μL of a solution containing 400 nM Calcein AM in 100% PBS was added to each well of the plate with a Biotek uFlow Workstation. The plate was incubated for 30 minutes at room temperature before the fluorescence signal ([…]) was measured with a Perkin Elmer Envision Plate Reader.
b) Assessment of inhibition of viral replication: The calcein-PBS solution in the 384-well cell culture plate was aspirated with a Biotek EL405 plate-washer. A volume of 20 μL of Dual-Glo luciferase buffer (Promega, Dual-Glo Luciferase Assay Reagent, cat. #E298B) was added to each well of the plate with a Biotek uFlow Workstation. The plate was incubated for 10 minutes at room temperature. A volume of 20 μL of a solution containing 1:100 mixture of Dual-Glo Stop & Glo substrate (Promega, Dual-Glo Luciferase Assay Reagent, cat. #E313B) and Dual-Glo Stop & Glo buffer (Promega, Dual-Glo Luciferase Assay Reagent, cat. #E314B) was then added to each well of the plate with a Biotek uFlow Workstation. The plate was incubated at room temperature for 10 minutes before the luminescence signal was measured with a Perkin Elmer Envision Plate Reader.
The percent cytotoxicity was determined by calcein AM conversion to fluorescent product. The average fluorescent signal from the DMSO control wells was defined as 100% nontoxic. The individual fluorescent signal from testing compound treated well was divided by the average signal from DMSO control wells and then multiplied by 100% to get the percent viability. The percent anti-HCV replication activity was determined by the luminescence signal from the testing well compared to DMSO control wells. The background signal was determined by the average luminescence signal from the HCV protease inhibitor treated wells and was subtracted from the signal from the testing wells as well as the DMSO control wells. Following 3-fold serial dilutions, the EC50 and CC50 values were calculated by fitting % inhibition at each concentration to the following equation: % inhibition=100%/[EC50/[I])^b+1]
Where b is Hill's coefficient. See, for reference, Hill, A. V., The Possible Effects of the Aggregation of the Molecules of Hæmoglobin on its Dissociation Curves, J. Physiol. 40: iv-vii. (1910). […]

SMILES: CN(C)Cc1ccnc(O[C@H]2CC[C@H](N(c3cc(C#CC4(C(F)(F)F)CC4)sc3C(=O)O)C(=O)[C@H]3CC[C@H](C)CC3)CC2)c1 [Compound 340, 3-((1r,4R)—N-((1r,4R)-4-(4-((dimethylamino)methyl)pyridin-2-yloxy)cyclohexyl)-4-methylcyclohexanecarboxamido)-5-((1-(trifluoromethyl)cyclopropyl)ethynyl)thiophene-2-carboxylic acid]
- inhibition at 2 µM: 100%

SMILES: CC1=CC[C@@H](C(=O)N(c2cc(C#CC(C)(C)C)sc2C(=O)O)[C@H]2CC[C@H](OC3CCOC3)CC2)CC1 (stereo partly shown) [Compound 334]
- inhibition at 2 µM: 99.9%

SMILES: C[C@@H](CCOc1ccc(O)nn1)N(c1cc(C#CC(C)(C)C)sc1C(=O)O)C(=O)[C@H]1CC[C@H](C)CC1 [Compound 63, 5-(3,3-dimethyl-but-1-ynyl)-3-[[3-(6-hydroxy-pyridazin-3-yloxy)-1-(S)-methyl-propyl]-(trans-4-methyl-cyclohexanecarbonyl)-amino]-thiophene-2-carboxylic acid]
- inhibition at 2 µM: 100%

SMILES: CCc1cc(O[C@H]2CC[C@H](N(C(=O)C3CCC(C)CC3)c3cc(C#CC(C)(C)C)sc3C(=O)O)CC2)cc(CC)n1 (stereo partly shown) [Compound 26, 3-[[4-(2,6-diethyl-pyridin-4-yloxy)-cyclohexyl]-(4-methyl-cyclohexanecarbonyl)-amino]-5-(3,3-Dimethyl-but-1-ynyl)-thiophene-2-carboxylic acid]
- inhibition at 2 µM: 99.8%

SMILES: CCOc1cc(OCC[C@H](C)N(c2cc(C#CC(C)(C)C)sc2C(=O)O)C(=O)[C@H]2CC[C@H](C)CC2)c2ccc(OC)c(C)c2n1 [Compound 144, 5-(3,3-dimethyl-but-1-ynyl)-3-[[3-(2-ethoxy-7-methoxy-8-methyl-quinolin-4-yloxy)-1-(S)-methyl-propyl]-(4-methyl-cyclohexanecarbonyl)-amino]-thiophene-2-carboxylic acid]
- inhibition at 2 µM: 95.4%

SMILES: C[C@@H](CCOc1cc(CN(C)C)ccn1)N(c1cc(C#CC(C)(C)C)sc1C(=O)O)C(=O)[C@H]1CC[C@H](C)CC1 [Compound 61, 3-[[3-(4-dimethylaminomethyl-pyridin-2-yloxy)-1-(S)-methyl-propyl]-(trans-4-methyl-cyclohexanecarbonyl)-amino]-5-(3,3-dimethyl-but-1-ynyl)-thiophene-2-carboxylic acid]
- inhibition at 2 µM: 99.9%

SMILES: CC(C)(C)C#Cc1cc(N(C(=O)[C@H]2CC[C@H](C)CC2)[C@H]2CCN(S(=O)(=O)c3cccs3)C2)c(C(=O)O)s1 [Compound 213, 5-(3,3-Dimethyl-but-1-ynyl)-3-{(4-methyl-cyclohexanecarbonyl)-[1-(thiophene-2-sulfonyl)-pyrrolidin-3-yl]-amino}-thiophene-2-carboxylic acid]
- inhibition at 2 µM: 99.9%

SMILES: CCc1cnc(O[C@H]2CC[C@H](N(c3cc(C#CC(C)(C)C)sc3C(=O)O)C(=O)[C@H]3CC[C@H](C)CC3)CC2)nc1 [Compound 148, 5-(3,3-Dimethylbut-1-ynyl)-3-(N-(4-(5-ethylpyrimidin-2-yloxy)cyclohexyl)-4-methylcyclohexanecarboxamido)thiophene-2-carboxylic acid]
- inhibition at 2 µM: 96.6%

SMILES: C[C@H]1CC[C@H](C(=O)N(c2cc(C#CC3(C(F)(F)F)CC3)sc2C(=O)O)[C@H]2CC[C@H](Oc3ccc(O)nn3)CC2)CC1 [Compound 342, 3-((1r,4R)—N-((1r,4R)-4-(6-hydroxypyridazin-3-yloxy)cyclohexyl)-4-methylcyclohexanecarboxamido)-5-((1-(trifluoromethyl)cyclopropyl)ethynyl)thiophene-2-carboxylic acid]
- inhibition at 2 µM: 100%

SMILES: CC(C)(C)C#Cc1cc(N(C(=O)[C@H]2CC[C@H](C)CC2)[C@H]2CC[C@H](Oc3cc(N4CCCC4)ncn3)CC2)c(C(=O)O)s1 [Compound 150, 5-(3,3-Dimethylbut-1-ynyl)-3-(4-methyl-N-(4-(6-(pyrrolidin-1-yl)pyrimidin-4-yloxy)cyclohexyl)cyclohexanecarboxamido)thiophene-2-carboxylic acid]
- inhibition at 2 µM: 99.6%

SMILES: CC(C)(C)C#Cc1cc(N(C(=O)[C@H]2CC[C@H](C)CC2)[C@H]2CC[C@@H](Oc3ccc(Cl)nn3)CC2)c(C(=O)O)s1 [Compound 177, 3-(N-(4-(6-Chloropyridazin-3-yloxy)cyclohexyl)-4-methylcyclohexanecarboxamido)-5-(3,3-dimethylbut-1-ynyl)thiophene-2-carboxylic acid]
- inhibition at 2 µM: 99.6%

SMILES: CC1CCC(C(=O)N(CCOc2cccnc2)c2cc(C#CC(C)(C)C)sc2C(=O)O)CC1 (stereo not shown) [Compound 138]
- inhibition at 2 µM: 99.7%

SMILES: CC1CCC(C(=O)N(c2cc(C#CC(C)(C)C)sc2C(=O)O)[C@H]2CC[C@H](Oc3cnccc3CN3CCC3)CC2)CC1 (stereo partly shown) [Compound 197, 3-[[-4-(4-azetidin-1-ylmethyl-pyridin-3-yloxy)-cyclohexyl]-(4-methyl-cyclohexanecarbonyl)-amino]-5-(3,3-dimethyl-but-1-ynyl)-thiophene-2-carboxylic acid]
- inhibition at 2 µM: 99.9%

SMILES: CC(C)(C)C#Cc1cc(N(C(=O)[C@H]2CC[C@H](C)CC2)[C@H]2CC[C@H](Sc3ccc4ccccc4n3)CC2)c(C(=O)O)s1 [Compound 91, 5-(3,3-Dimethylbut-1-ynyl)-3-(4-methyl-N-(4-(quinolin-2-ylthio)cyclohexyl)cyclohexanecarboxamido)thiophene-2-carboxylic acid]
- inhibition at 2 µM: 99.8%

SMILES: CC(C)(C)C#Cc1cc(N(C(=O)[C@H]2CC[C@H](C)CC2)[C@H]2CC[C@H](O[C@H]3COC[C@@H]3O)CC2)c(C(=O)O)s1 [Compound 318, 5-(3,3-Dimethyl-but-1-ynyl)-3-[[4-(4-trans-hydroxy-tetrahydro-furan-3-yloxy)-cyclohexyl]-(4-methyl-cyclohexanecarbonyl)-amino]-thiophene-2-carboxylic acid]
- inhibition at 2 µM: 99.7%

SMILES: CC(C)(C)C#Cc1cc(N(C(=O)[C@H]2CC[C@H](C)CC2)C2CCN(S(=O)(=O)c3cnc(=O)[nH]c3)CC2)c(C(=O)O)s1 [Compound 208, 5-(3,3-Dimethyl-but-1-ynyl)-3-{(4-methyl-cyclohexanecarbonyl)-[1-(2-oxo-1,2-dihydro-pyrimidine-5-sulfonyl)-piperidin-4-yl]-amino}-thiophene-2-carboxylic acid]
- inhibition at 2 µM: 63.8%

SMILES: CC(C)(C)C#Cc1cc(N(C(=O)[C@H]2CC[C@H](C)CC2)[C@H]2CC[C@H](Oc3ccc(N4CCCC4)nn3)CC2)c(C(=O)O)s1 [Compound 159, 5-(3,3-Dimethylbut-1-ynyl)-3-(4-methyl-N-(4-(6-(pyrrolidin-1-yl)pyridazin-3-yloxy)cyclohexyl)cyclohexanecarboxamido)thiophene-2-carboxylic acid]
- inhibition at 2 µM: 99.8%

SMILES: CN(C)c1ncc(S(=O)(=O)N2CCC(N(c3cc(C#CC(C)(C)C)sc3C(=O)O)C(=O)[C@H]3CC[C@H](C)CC3)CC2)cn1 [Compound 204, 3-[[1-(2-Dimethylamino-pyrimidine-5-sulfonyl)-piperidin-4-yl]-(4-methyl-cyclohexanecarbonyl)-amino]-5-(3,3-dimethyl-but-1-ynyl)-thiophene-2-carboxylic acid]
- inhibition at 2 µM: 99.1%

SMILES: CC1CCC(C(=O)N(c2cc(C#CC(C)(C)C)sc2C(=O)O)[C@H]2CC[C@H](Oc3cnccc3CN3CCCC3)CC2)CC1 (stereo partly shown) [Compound 196, 3-[[-4-(4-pyrrolidin-1-ylmethyl-pyridin-3-yloxy)-cyclohexyl]-(4-methyl-cyclohexanecarbonyl)-amino]-5-(3,3-dimethyl-but-1-ynyl)-thiophene-2-carboxylic acid]
- inhibition at 2 µM: 100%
